What was measured:
[1] = test system: synaptosomes from the striatal area of rat brain; experiment: [3H]-dopamine release from rat striatal synaptosomes; assay type: biochemical, Sprague-Dawley rats; conditions: 0.2 ml of a 20 μM solution of ligand, relative to equal concentration of S(-) nicotine
Procedure: Dopamine release was measured by preparing synaptosomes from the striatal area of rat brain obtained from Sprague-Dawley rats generally according to the procedures set forth by Nagy, et al., J. Neurochem., Vol. 43, pp. 1114-1123 (1984). Striata from 4 rats were homogenized in 2 ml of 0.32M sucrose buffered with 5 mM HEPES (pH 7.5), using a glass-teflon tissue grinder. The homogenate was diluted to 5 ml with additional homogenization solution and centrifuged at 1000×g for 10 min. This procedure was repeated on the new pellet and the resulting supernatant was centrifuged at 12,000×g for 20 min. […] Using this method, 30 to 90 percent of the dopamine was taken up into the synaptosomes, as determined by scintillation counting following filtration through glass fiber filters soaked with 0.5 percent polyethyleneimine. […] After the addition of a 0.2 ml of a 20 μM solution of ligand, the perfusate was collected into scintillation vials at 1 min. intervals and the dopamine released was quantified by scintillation counting. Peaks of radioactivity released above background were summed and the average basal release during that time was subtracted from the total. Release was expressed as a percentage of release obtained with an equal concentration of S(-) nicotine.

[2] = molecular target: high affinity nicotinic receptors; experiment: Inhibition of L-[3H]nicotine binding to mouse brain membrane preparations; design: species or system Mice (DBA strain); conditions: mouse brain membranes, 2 hr incubation at 4° C., 10 nM L-[3H]nicotine, Ki calculated from IC50 by method of Cheng et al.
Procedure: Mice (DBA strain) were maintained on a 12 hour light/dark cycle and were allowed free access to water and food supplied by Wayne Lab Blox, Madison, Wis. Animals used in the present studies were 60 to 90 days of age and weighed 20 to 25 g. Brain membrane preparations were obtained from pooled brain tissue of both males and females.
Mice were killed by cervical dislocation. Brains were removed and placed on an ice-cold platform. […] Protein was determined by the method of Lowry, et al., J. Biol. Chem., Vol. 193, pp. 265-275 (1951), using bovine serum albumin as the standard.
The binding of L-[^3 H]nicotine was measured using a modification of the method of Romano, et al., Science, Vol. 210, pp. 647-650 (1980) as described previously by Marks, et al., Mol. Pharmacol., Vol. 30, pp. 427-436 (1986). The binding of L-[^3 H]nicotine was measured using a 2 hr. incubation at 4° C. […] Nonspecific binding was determined by inclusion of 10 μM nonradioactive nicotine in the incubations. The inhibition of L-[^3 H]nicotine binding by test compounds was determined by including one of eight different concentrations of the test compound in the incubation. […] Inhibition constants (Ki values) were calculated from the IC50 values using the method of Cheng, et al., Biochem. Pharmacol., Vol. 22, pp. 3099-3108 (1973). […]

## CN1CCCC1c1ccncc1 (centres unmarked) [gamma-nicotine]
[1]
  Dopamine Release (Percent release relative to S(-) nicotine): 45%
[2]
  Ki: 1100 ± 100 nM

Reference: US5242934A, “Method for treatment of neurodegenerative diseases” (R. J. Reynolds Tobacco Company, priority 1992, dated 1993)
